Measurements published in ChEMBL document CHEMBL3885861, “Open TG-GATES”.

Species on record: Rattus norvegicus
Experiment: Open TG-GATES - Regimen: Daily Repeat
Format: toxicity, organism-based, Sprague-Dawley
Design: regimen Daily Repeat, gender Male, age 6 weeks
Settings: in vivo, po, route gavage; for APTT / Bas / Eos / Fbg / Hb / Ht / Lym / MCH / MCHC / MCV / Mono / PT / Plat / RBC / Ret / WBC / Neu: tissue Blood; for ALP / ALT / BUN / CRE / DBIL / GLC / IP / K / LDH / Na / PL / RALB / TBIL / TC / TG / TP / gamma-GTP: tissue Plasma
[1] = 0 mg/kg, 72 h, dose level Control, time 3 day
[2] = 0 mg/kg, […], dose level Control, time 7 day
[3] = 0 mg/kg, […], dose level Control, time 14 day
[4] = 0 mg/kg, […], dose level Control, time 28 day
[5] = 60 mg/kg, 72 h, dose level Low, time 3 day
[6] = 60 mg/kg, […], dose level Low, time 7 day
[7] = 60 mg/kg, […], dose level Low, time 14 day
[8] = 60 mg/kg, […], dose level Low, time 28 day

Q: Which results are given for `CCN(CC)C(=S)SSC(=S)N(CC)CC`?
A: TERMINAL_BW [1]: 228.6 g; APTT [1]: 22.7 s; Bas [1]: 0%; Eos [1]: 0.8%; Fbg [1]: 295 mg/dL; Hb [1]: 12.5 g/dL; Ht [1]: 38.7%; Lym [1]: 81.8%; MCH [1]: 20.5 pg; MCHC [1]: 32.2%; MCV [1]: 63.6 fL; Mono [1]: 2.4%; PT [1]: 16.3 s; Plat [1]: 112 x10_4/uL; RBC [1]: 609 x10_4/ul; Ret [1]: 7%; WBC [1]: 78.4 x10_2/uL; ALP [1]: 1421 IU/L; ALT [1]: 42.6 IU/L; BUN [1]: 17.6 mg/dL; CRE [1]: 0.2 mg/dL; DBIL [1]: 0 mg/dL; GLC [1]: 192.2 mg/dL; IP [1]: 7.8 mg/dL; K [1]: 4.2 meq/L; LDH [1]: 190.4 IU/L; Na [1]: 142.6 meq/L; PL [1]: 136.8 mg/dL; RALB [1]: 3.1 g/dL; TBIL [1]: 0.002 mg/dL; TC [1]: 73.4 mg/dL; TG [1]: 91.6 mg/dL; TP [1]: 5.5 g/dL; gamma-GTP [1]: 1.4 IU/L; TERMINAL_BW [2]: 265.7 g; TERMINAL_BW [3]: 313.3 g; TERMINAL_BW [4]: 364.4 g; APTT [2]: 22.1 s; Bas [2]: 0%; Eos [2]: 0.8%; Fbg [2]: 315 mg/dL; Hb [2]: 12.8 g/dL; Ht [2]: 39.2%; Lym [2]: 82%; MCH [2]: 20.3 pg; MCHC [2]: 32.6%; MCV [2]: 62.3 fL; Mono [2]: 2.8%; PT [2]: 16.4 s; Plat [2]: 116.8 x10_4/uL; RBC [2]: 629 x10_4/ul; Ret [2]: 6.3%; WBC [2]: 134.5 x10_2/uL; APTT [3]: 23.7 s; Bas [3]: 0%; Eos [3]: 1%; Fbg [3]: 311.2 mg/dL; Hb [3]: 13.9 g/dL; Ht [3]: 41.2%; Lym [3]: 82.4%; MCH [3]: 20.1 pg; MCHC [3]: 33.9%; MCV [3]: 59.4 fL; Mono [3]: 2%; Neu [3]: 13.4%; PT [3]: 16.3 s; Plat [3]: 112 x10_4/uL; RBC [3]: 693.4 x10_4/ul; Ret [3]: 4.9%; WBC [3]: 133.7 x10_2/uL; APTT [4]: 24.8 s; Bas [4]: 0%; Eos [4]: 1.2%; Fbg [4]: 321.4 mg/dL; Hb [4]: 15.2 g/dL; Ht [4]: 44.8%; Lym [4]: 83.2%; MCH [4]: 19.5 pg; MCHC [4]: 34%; MCV [4]: 57.5 fL; Mono [4]: 2.2%; Neu [4]: 12.2%; PT [4]: 16.6 s; Plat [4]: 98.2 x10_4/uL; RBC [4]: 780.6 x10_4/ul; Ret [4]: 2.8%; WBC [4]: 121 x10_2/uL; ALP [2]: 1448.6 IU/L; ALT [2]: 43.6 IU/L; BUN [2]: 17.4 mg/dL; CRE [2]: 0.2 mg/dL; DBIL [2]: 0 mg/dL; GLC [2]: 203.8 mg/dL; IP [2]: 7.9 mg/dL; K [2]: 4.5 meq/L; LDH [2]: 223 IU/L; Na [2]: 142 meq/L; PL [2]: 138.4 mg/dL; RALB [2]: 3.1 g/dL; TBIL [2]: 0.008 mg/dL; TC [2]: 71.4 mg/dL; TG [2]: 106.6 mg/dL; TP [2]: 5.5 g/dL; gamma-GTP [2]: 2.2 IU/L; ALP [3]: 1430.8 IU/L; ALT [3]: 45 IU/L; BUN [3]: 20.8 mg/dL; CRE [3]: 0.2 mg/dL; DBIL [3]: 0 mg/dL; GLC [3]: 204.2 mg/dL; IP [3]: 7.4 mg/dL; K [3]: 4.4 meq/L; LDH [3]: 167 IU/L; Na [3]: 141.2 meq/L; PL [3]: 143 mg/dL; RALB [3]: 3.2 g/dL; TBIL [3]: 0 mg/dL; TC [3]: 73.6 mg/dL; TG [3]: 91.4 mg/dL; TP [3]: 5.8 g/dL; gamma-GTP [3]: 2.6 IU/L; ALP [4]: 1127.4 IU/L; ALT [4]: 35 IU/L; BUN [4]: 18.4 mg/dL; CRE [4]: 0.2 mg/dL; DBIL [4]: 0 mg/dL; GLC [4]: 202.8 mg/dL; IP [4]: 6.8 mg/dL; K [4]: 4 meq/L; LDH [4]: 154.8 IU/L; Na [4]: 143.2 meq/L; PL [4]: 145 mg/dL; RALB [4]: 3.2 g/dL; TBIL [4]: 0.014 mg/dL; TC [4]: 76 mg/dL; TG [4]: 113.4 mg/dL; TP [4]: 6 g/dL; gamma-GTP [4]: 2.6 IU/L; TERMINAL_BW [5]: 224.7 g; APTT [5]: 21.1 s; Bas [5]: 0%; Eos [5]: 0.6%; Fbg [5]: 308.2 mg/dL; Hb [5]: 12.3 g/dL; Ht [5]: 38.1%; MCH [5]: 19.7 pg; MCHC [5]: 32.2%; MCV [5]: 61.2 fL; Mono [5]: 2.2%; PT [5]: 15.9 s; Plat [5]: 113.7 x10_4/uL; RBC [5]: 624.4 x10_4/ul; Ret [5]: 4.6%; WBC [5]: 88.7 x10_2/uL; ALP [5]: 1308.8 IU/L; ALT [5]: 45.4 IU/L; BUN [5]: 17.8 mg/dL; CRE [5]: 0.2 mg/dL; DBIL [5]: 0 mg/dL; GLC [5]: 178.8 mg/dL; IP [5]: 7 mg/dL; K [5]: 4.1 meq/L; LDH [5]: 188 IU/L; Na [5]: 143.6 meq/L; PL [5]: 151.6 mg/dL; RALB [5]: 3.1 g/dL; TBIL [5]: 0.004 mg/dL; TC [5]: 86.2 mg/dL; TG [5]: 83 mg/dL; TP [5]: 5.5 g/dL; gamma-GTP [5]: 1.6 IU/L; TERMINAL_BW [6]: 255.2 g; TERMINAL_BW [7]: 296.1 g; TERMINAL_BW [8]: 358.2 g; APTT [6]: 21.7 s; Bas [6]: 0%; Eos [6]: 0.6%; Fbg [6]: 312.8 mg/dL; Hb [6]: 12.4 g/dL; Ht [6]: 38.4%; MCH [6]: 20.1 pg; MCHC [6]: 32.3%; MCV [6]: 62.1 fL; Mono [6]: 2.4%; PT [6]: 16 s; Plat [6]: 129.8 x10_4/uL; RBC [6]: 620.4 x10_4/ul; Ret [6]: 7.5%; WBC [6]: 137.8 x10_2/uL; APTT [7]: 23.8 s; Bas [7]: 0%; Eos [7]: 1%; Fbg [7]: 319.4 mg/dL; Hb [7]: 13.9 g/dL; Ht [7]: 40.9%; MCH [7]: 19.7 pg; MCHC [7]: 33.8%; MCV [7]: 58.2 fL; Mono [7]: 2.8%; PT [7]: 16.1 s; Plat [7]: 124.6 x10_4/uL; RBC [7]: 704.6 x10_4/ul; Ret [7]: 5.1%; WBC [7]: 126 x10_2/uL; APTT [8]: 24 s; Bas [8]: 0%; Eos [8]: 1%; Fbg [8]: 329.2 mg/dL; Hb [8]: 14.2 g/dL; Ht [8]: 41.1%; MCH [8]: 19.2 pg; MCHC [8]: 34.7%; MCV [8]: 55.4 fL; Mono [8]: 2.2%; PT [8]: 16.5 s; Plat [8]: 108.8 x10_4/uL; RBC [8]: 742.2 x10_4/ul; Ret [8]: 3.3%; WBC [8]: 116.8 x10_2/uL; ALP [6]: 991.6 IU/L; ALT [6]: 37.4 IU/L; BUN [6]: 16.8 mg/dL; CRE [6]: 0.2 mg/dL; DBIL [6]: 0 mg/dL; GLC [6]: 183 mg/dL; IP [6]: 7 mg/dL; K [6]: 4.4 meq/L; LDH [6]: 217.8 IU/L; Na [6]: 143.6 meq/L; PL [6]: 142.4 mg/dL; RALB [6]: 3 g/dL; TBIL [6]: 0.012 mg/dL; TC [6]: 78.4 mg/dL; TG [6]: 64.2 mg/dL; TP [6]: 5.5 g/dL; gamma-GTP [6]: 1.8 IU/L; ALP [7]: 1244.8 IU/L; ALT [7]: 37.6 IU/L; BUN [7]: 18.6 mg/dL; CRE [7]: 0.2 mg/dL; DBIL [7]: 0 mg/dL; GLC [7]: 178 mg/dL; IP [7]: 6.2 mg/dL; K [7]: 4.1 meq/L; LDH [7]: 146.8 IU/L; Na [7]: 142 meq/L; PL [7]: 165.2 mg/dL; RALB [7]: 3.2 g/dL; TBIL [7]: 0.004 mg/dL; TC [7]: 92.4 mg/dL; TG [7]: 70.6 mg/dL; TP [7]: 5.9 g/dL; gamma-GTP [7]: 2.8 IU/L; ALP [8]: 808.4 IU/L; ALT [8]: 36 IU/L; CRE [8]: 0.2 mg/dL; DBIL [8]: 0 mg/dL; GLC [8]: 183.4 mg/dL; IP [8]: 5.8 mg/dL; K [8]: 4 meq/L; LDH [8]: 106.2 IU/L; Na [8]: 142.4 meq/L; PL [8]: 150.2 mg/dL; RALB [8]: 3 g/dL; TBIL [8]: 0.018 mg/dL; TC [8]: 87.2 mg/dL
